Source: patent publication US20240254175A1, “NOVEL SELECTIVE ANT[…] PEPTIDES” (BOMBI BIOMICS BV, priority 2021, published 2024)
Non-standard residues stand in square brackets, D forms with d. Residues, ends and D or L forms follow the SMILES beside them. No end group written: not given here. *: point of attachment. Palmitoyl = CCCCCCCCCCCCCCCC(=O)*

Key:
C. acnes biofilm = conditions: strains with the strongest C. acnes biofilm formation ability
Procedure: Briefly, 250 μl of bacterial cells (1×10^6 CFU/ml) of 10 strains (C. acnes 3, 4, 23, 25, 55, 61, 62, 63, 68, 78) (FIG. 9) with the strongest biofilm formation ability were inoculated in a Greiner polyethylene 96well plate (Sigma Aldrich); TSB culture medium containing no bacteria was used as the blank control, and the plate was incubated at 37° C. for 24 hours. The culture medium was subsequently removed, and wells were carefully washed with PBS three times to remove C. acnes bacteria.
Subsequently, 250 μl of TSB culture medium containing the aforementioned polypeptides in serial doubling dilutions was added to each well. TSB medium without any of the polypeptides was used as a negative control, and plates were incubated at 37° C. for 24 hours. If OD600<0.1, there was no bacterial growth, and the lowest concentration without bacterial growth at this time point was recorded; this is the Minimum Biofilm Inhibitory Concentration (MBIC). Then, the cells and polypeptides in the 96-well cell culture plate were washed with PBS, and 250 μl of TSB culture medium was added to each well.
The plates were incubated at 37° C. for 24 hours to re-grow the surviving biofilm bacteria. […] The lowest concentration at which no bacterial growth was recorded is the minimal biofilm eradication concentration (MBEC).

human erythrocytes = test system: human erythrocytes
Procedure: A hemolytic assay was performed as previously described by Zelezetsky et al.. Freshly drawn human erythrocytes were rinsed three times with phosphate buffered saline (PBS) and resuspended in PBS to 4% (v/v). […] PBS and 0.1% (v/v) Triton-X 100 were used as 0% and 100% hemolytic control respectively. Plates were incubated at 37° C. for 1 hour.
Subsequently, the plate was centrifuged and the supernatant was transferred to a new plate. The release of hemoglobin in the supernatant was monitored at absorbance of 450 nm using an Infinite M1000 Microplate reader (Tecan). Results were pooled from three independent experiments and expressed as mean±SD. HC10 and HC50 were defined as the peptide concentrations causing 10% and 50% hemolysis on human erythrocytes, respectively.

[1] = test system: other bacteria tested (C. granulosum, C. avidum, S. aureus, S. epidermis, C. striatum); assay: In vitro killing assay on the other (non C. acnes) bacteria; assay type: cell-based
Procedure: Inoculi of mid-log phase bacteria were prepared by incubating the above isolated colonies from blood agar plates in Tryptic Soy Broth (TSB) medium (Becton Dickinson, Le Pont de Clax, France) for 2.5 hours and then diluted to the concentration needed.
For the in vitro killing assay on mid-log phase bacteria, each of the above strains were resuspended to a concentration of 1×10^6 bacteria/ml in phosphate buffered saline (PBS). Subsequently, 200 μl was added to a concentration range of peptides Wildtype BLP-7, BMBN-1, BMBN-2, BMBN-3, BMBN-4, BMBN-5, BMBN-6, and BMBN-7 that were lyophilized in advance. Subsequently, the bacteria-peptide mixtures were incubated for 1 hour at 37° C. To establish the killing capacity and specificity of these peptides, the suspensions were serially diluted and plated onto DST agar plates to measure viable CFU counts. IC90, IC99 and IC99.9 values were calculated by linear regression analysis. […] Results were pooled from 4 independent experiments concerning the above C. acnes strains (FIG. 2B) and 5 independent experiments concerning the other non C. acnes related strains (FIG. 2B continued). The results are expressed as mean±standard deviation (SD).

CCCCCCCCCCCCCCCC(=O)NCC(=O)N[C@H](C(=O)NCC(=O)NCC(=O)N[C@@H](C)C(=O)N[C@@H](CC(C)C)C(=O)N[C@@H](CC(C)C)C(=O)N[C@@H](CO)C(=O)N[C@@H](C)C(=O)NCC(=O)N[C@@H](CCCCN)C(=O)N[C@@H](CO)C(=O)N[C@@H](C)C(=O)N[C@@H](CC(C)C)C(=O)N[C@@H](CCCCN)C(=O)NCC(=O)N[C@@H](CC(C)C)C(=O)N[C@@H](C)C(=O)N[C@@H](CCCCN)C(=O)NCC(=O)N[C@@H](CC(C)C)C(=O)N[C@@H](C)C(=O)N[C@@H](CCC(=O)O)C(=O)N[C@@H](Cc1c[nH]cn1)C(=O)N[C@@H](Cc1ccccc1)C(=O)N[C@@H](C)C(=O)N[C@@H](CC(N)=O)C(N)=O)[C@@H](C)CC [BMBN-1] (Palmitoyl-GIGGALLSAGKSALKGLAKGLAEHFAN-NH2)
MBEC (concentration that eradicates the biofilm) (C. acnes biofilm): 235 to 496 µg/mL

CCCCCCCCCCCCCCCC(=O)N[C@H](CCC(=O)O)C(=O)N[C@H](CCCNC(=N)N)C(=O)N[C@H](CC(N)=O)C(=O)N[C@H](CC(N)=O)C(=O)N[C@H](Cc1ccccc1)C(=O)NCC(=O)NCC(=O)NCC(=O)NCC(=O)N[C@@H](C(=O)NCC(=O)NCC(=O)N[C@H](C)C(=O)N[C@H](CC(C)C)C(=O)N[C@H](CC(C)C)C(=O)N[C@H](CO)C(=O)N[C@H](C)C(=O)NCC(=O)N[C@H](CCC(=O)O)C(=O)N[C@H](CO)C(=O)N[C@H](C)C(=O)N[C@H](CC(C)C)C(=O)N[C@H](CCCCN)C(=O)NCC(=O)N[C@H](CC(C)C)C(=O)N[C@H](C)C(=O)N[C@H](CCCCN)C(=O)NCC(=O)N[C@H](CC(C)C)C(=O)N[C@H](C)C(=O)N[C@H](CCC(=O)O)C(=O)N[C@H](Cc1c[nH]cn1)C(=O)N[C@H](Cc1ccccc1)C(=O)N[C@H](C)C(=O)N[C@H](CC(N)=O)C(N)=O)[C@H](C)CC [BMBN-7] (Palmitoyl-[dE][dR][dN][dN][dF]GGGG[dI]GG[dA][dL][dL][dS][dA]G[dE][dS][dA][dL][dK]G[dL][dA][dK]G[dL][dA][dE][dH][dF][dA][dN]-NH2)
MBIC (concentration that inhibits the biofilm) (C. acnes biofilm): 56 to 117 µg/mL
hemolytic activity (in words) (human erythrocytes): negligible hemolytic activity

CCCCCCCCCCCCCCCC(=O)N[C@@H](CCC(=O)O)C(=O)N[C@@H](CCCNC(=N)N)C(=O)N[C@@H](CC(N)=O)C(=O)N[C@@H](CC(N)=O)C(=O)N[C@@H](Cc1ccccc1)C(=O)NCC(=O)NCC(=O)NCC(=O)N[C@H](CC(N)=O)C(=O)N[C@H](C)C(=O)N[C@H](Cc1ccccc1)C(=O)N[C@H](Cc1c[nH]cn1)C(=O)N[C@H](CCC(=O)O)C(=O)N[C@H](C)C(=O)N[C@H](CC(C)C)C(=O)NCC(=O)N[C@H](CCCCN)C(=O)N[C@H](C)C(=O)N[C@H](CC(C)C)C(=O)NCC(=O)N[C@H](CCCCN)C(=O)N[C@H](CC(C)C)C(=O)N[C@H](C)C(=O)N[C@H](CO)C(=O)N[C@H](CCC(=O)O)C(=O)NCC(=O)N[C@H](C)C(=O)N[C@H](CO)C(=O)N[C@H](CC(C)C)C(=O)N[C@H](CC(C)C)C(=O)N[C@H](C)C(=O)NCC(=O)NCC(=O)N[C@@H](C(=O)NCC(N)=O)[C@H](C)CC [BMBN-6] (Palmitoyl-ERNNFGGG[dN][dA][dF][dH][dE][dA][dL]G[dK][dA][dL]G[dK][dL][dA][dS][dE]G[dA][dS][dL][dL][dA]GG[dI]G-NH2)
effect on other, untargeted bacteria / specificity towards C. acnes (in words) [1]: specificity towards C. acnes only negligibly decreased

GIGGALLSAGKSALKGLAKGLAEHFAN-NH2 [Wildtype BLP-7, reference compound]
hemolytic activity (in words) (human erythrocytes): within the range of negligible hemolytic activity
